Source: patent EP0618203A1, “3-O-acylated catechins and method of producing same” (MITSUI NORIN CO., LTD., priority 1993, dated 1994)

Legend:
[1] = Antioxidative activity in salad oil, Rancimat method (induction time); conditions: 100ppm in salad oil, 120°C, Control 3.40
Description: We investigated the antioxidative activity of the acylated derivatives of (-)-epigallocatechin, one of the most powerful antioxidants in tea. […] (The reaction was conducted at a temperature of 120°C).

[2] = Solubility in fats and oils (turbidity of salad oil, absorbance at 660nm); format: physicochemical; conditions: sample added to salad oil (Honen Corporation) at 100ppm; turbidity as absorbance at 660nm; Control 0.057; lower = better dissolved
Description: Each sample was added to salad oil (Honen Corporation) in a concentration of 100ppm, and turbidity was determined by measuring absorbance at 660nm.

SMILES	Induction Time [1] [h]	OD 660 [2]
CCC(=O)O[C@@H]1Cc2c(O)cc(O)cc2O[C@@H]1c1cc(O)c(O)c(O)c1 [(-)-3-0-Propionyl epigallocatechin, (-)-3-0-propionyl epigallocatechin]	6.02	–
Oc1cc(O)c2c(c1)O[C@H](c1cc(O)c(O)c(O)c1)[C@H](O)C2 [(-)-Epigallocatechin, (-)-epigallocatechin]	6.03	0.277
CCCC(=O)O[C@@H]1Cc2c(O)cc(O)cc2O[C@@H]1c1cc(O)c(O)c(O)c1 [(-)-3-0-Butyryl epigallocatechin, (-)-3-0-butyryl-epigallocatechin]	6.07	–
